How the values were obtained:
Assay type in all cases: in vivo
rice (Oryza sativa) = test: Test B flooded paddy test, plant response rating; conditions: 250 g ai/ha; Flood; scale of 0 to 100 where 0 is no effect and 100 is complete control; 13 to 15 days
How it was run: (§1)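 Pots were flooded to 3 cm above the soil surface at treatment, compound applied directly to the paddy water, and that depth held throughout. Plants were kept in a greenhouse for 13 to 15 days, then visually rated against untreated controls.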

[1] = system: barnyardgrass (Echinochloa crus-galli); test: Test B flooded paddy test, plant response rating; conditions: 250 g ai/ha; Flood; scale of 0 to 100 where 0 is no effect and 100 is complete control; 13 to 15 days
How it was run: as §1

[2] = system: sedge, umbrella (small-flower umbrella sedge, Cyperus difformis); test: Test B flooded paddy test, plant response rating; conditions: 250 g ai/ha; Flood; scale of 0 to 100 where 0 is no effect and 100 is complete control; 13 to 15 days
How it was run: as §1

[3] = system: ducksalad (Heteranthera limosa); test: Test B flooded paddy test, plant response rating; conditions: 250 g ai/ha; Flood; scale of 0 to 100 where 0 is no effect and 100 is complete control; 13 to 15 days
How it was run: as §1

[4] = system: Italian ryegrass (Lolium multiflorum); test: Test A postemergence, visual injury rating; conditions: 0 is no effect, 100 is complete control
How it was run: (§2)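 Greenhouse pot test, loam/sand soil. Formulation: non-phytotoxic solvent mix plus surfactant. Pre: directed spray onto soil after sowing. Post: plants at 1–2 leaf, 2–10 cm. Rated visually vs untreated controls at ~10 d, 0 (no effect) to 100 (complete control).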

[5] = system: ragweed (common ragweed, Ambrosia elatior); test: Test A postemergence, visual injury rating; conditions: 0 is no effect, 100 is complete control
How it was run: as §2

[6] = system: pigweed (Amaranthus retroflexus); test: Test A postemergence, visual injury rating; conditions: 0 is no effect, 100 is complete control
How it was run: as §2

[7] = system: blackgrass (Alopecurus myosuroides); test: Test A postemergence, visual injury rating; conditions: 0 is no effect, 100 is complete control
How it was run: as §2

[8] = system: barnyardgrass (Echinochloa crus-galli); test: Test A postemergence, visual injury rating; conditions: 0 is no effect, 100 is complete control
How it was run: as §2

[9] = system: galium (catchweed bedstraw, Galium aparine); test: Test A postemergence, visual injury rating; conditions: 0 is no effect, 100 is complete control
How it was run: as §2

[10] = system: wheat (Triticum aestivum); test: Test A postemergence, visual injury rating; conditions: 0 is no effect, 100 is complete control
How it was run: as §2

[11] = system: giant foxtail (Setaria faberii); test: Test A postemergence, visual injury rating; conditions: 0 is no effect, 100 is complete control
How it was run: as §2

corn (Zea mays) = test: Test A postemergence, visual injury rating; conditions: 0 is no effect, 100 is complete control
How it was run: as §2

kochia (Kochia scoparia) [12] = test: Test A postemergence, visual injury rating; conditions: 0 is no effect, 100 is complete control
How it was run: as §2

[13] = system: Italian ryegrass (Lolium multiflorum); test: Test A preemergence, visual injury rating; conditions: for Ryegrass, Italian plant response rating: 0 to 100 scale (0 no effect, 100 complete control)
How it was run: as §2

[14] = system: ragweed (common ragweed, Ambrosia elatior); test: Test A preemergence, visual injury rating; conditions: for Ragweed plant response rating: 0 to 100 scale (0 no effect, 100 complete control)
How it was run: as §2

[15] = system: pigweed (Amaranthus retroflexus); test: Test A preemergence, visual injury rating; conditions: for Pigweed plant response rating: 0 to 100 scale (0 no effect, 100 complete control)
How it was run: as §2

[16] = system: barnyardgrass (Echinochloa crus-galli); test: Test A preemergence, visual injury rating; conditions: for Barnyardgrass plant response rating: 0 to 100 scale (0 no effect, 100 complete control)
How it was run: as §2

[17] = system: giant foxtail (Setaria faberii); test: Test A preemergence, visual injury rating; conditions: for Foxtail, Giant plant response rating: 0 to 100 scale (0 no effect, 100 complete control)
How it was run: as §2

kochia (Kochia scoparia) [18] = test: Test A preemergence, visual injury rating; conditions: for Kochia plant response rating: 0 to 100 scale (0 no effect, 100 complete control)
How it was run: as §2

[19] = 31 g ai/ha, 0 to 100 scale, approximately 10 days
[20] = 31 g ai/ha, 0 to 100 scale, 0 no effect, 100 complete control

Row | Compound | Plant response rating, Rice (rice (Oryza sativa)) | Plant response rating, Barnyardgrass [1] | Plant response rating, Sedge, Umbrella [2] | Plant response rating, Ducksalad [3] | Ryegrass, Italian plant response rating (0 to 100 scale) ([4]; 125 g ai/ha) | Ragweed plant response rating (0 to 100 scale) ([5]; 125 g ai/ha) | Pigweed plant response rating (0 to 100 scale) ([6]; 125 g ai/ha) | Blackgrass plant response rating (0 to 100 scale) ([7]; 125 g ai/ha) | Barnyardgrass plant response rating (0 to 100 scale) ([8]; 125 g ai/ha) | Galium plant response rating (0 to 100 scale) ([9]; 125 g ai/ha) | Wheat plant response rating (0 to 100 scale) ([10]; 125 g ai/ha) | Foxtail, Giant plant response rating (0 to 100 scale) ([11]; 125 g ai/ha) | Corn plant response rating (0 to 100 scale) (corn (Zea mays); 125 g ai/ha) | Kochia plant response rating (0 to 100 scale) (kochia (Kochia scoparia) [12]; 125 g ai/ha) | Ryegrass, Italian plant response rating ([13]; 125 g ai/ha) | Ragweed plant response rating ([14]; 125 g ai/ha) | Pigweed plant response rating ([15]; 125 g ai/ha) | Barnyardgrass plant response rating ([16]; 125 g ai/ha) | Foxtail, Giant plant response rating ([17]; 125 g ai/ha) | Kochia plant response rating (kochia (Kochia scoparia) [18]; 125 g ai/ha) | further results
1 | O=C(OCC(F)(F)F)c1c(F)cccc1Oc1ncc(Br)cn1 [Compound 47] | 0 | 0 | 0 | 0 | 0 | 0 | 0 | 0 | 0 | 0 | 0 | 0 | 0 | 0 | 0 | 0 | 0 | 0 | 0 | 0 | Ryegrass, Italian plant response rating (0 to 100 scale) ([4]; 500 g ai/ha): 0; Ragweed plant response rating (0 to 100 scale) ([5]; 500 g ai/ha): 0; Pigweed plant response rating (0 to 100 scale) ([6]; 500 g ai/ha): 0; Blackgrass plant response rating (0 to 100 scale) ([7]; 500 g ai/ha): 0; Barnyardgrass plant response rating (0 to 100 scale) ([8]; 500 g ai/ha): 0; Galium plant response rating (0 to 100 scale) ([9]; 500 g ai/ha): 0; Wheat plant response rating (0 to 100 scale) ([10]; 500 g ai/ha): 0; Foxtail, Giant plant response rating (0 to 100 scale) ([11]; 500 g ai/ha): 0; Corn plant response rating (0 to 100 scale) (corn (Zea mays); 500 g ai/ha): 0; Kochia plant response rating (0 to 100 scale) (kochia (Kochia scoparia) [12]; 500 g ai/ha): 0; Ryegrass, Italian plant response rating ([13]; 500 g ai/ha): 0; Ragweed plant response rating ([14]; 500 g ai/ha): 0; Pigweed plant response rating ([15]; 500 g ai/ha): 0; Barnyardgrass plant response rating ([16]; 500 g ai/ha): 0; Foxtail, Giant plant response rating ([17]; 500 g ai/ha): 0; Kochia plant response rating (kochia (Kochia scoparia) [18]; 500 g ai/ha): 0
2 | O=C(OCC(F)(F)F)c1c(F)cccc1Oc1ncc(Cl)cn1 [Compound 48] | 20 | 20 | 0 | 0 | 0 | 0 | 20 | 0 | 0 | 0 | 0 | 0 | 0 | 0 | 0 | 0 | 0 | 0 | 0 | 0 | Ryegrass, Italian plant response rating (0 to 100 scale) ([4]; 500 g ai/ha): 0; Ragweed plant response rating (0 to 100 scale) ([5]; 500 g ai/ha): 0; Pigweed plant response rating (0 to 100 scale) ([6]; 500 g ai/ha): 40; Blackgrass plant response rating (0 to 100 scale) ([7]; 500 g ai/ha): 20; Barnyardgrass plant response rating (0 to 100 scale) ([8]; 500 g ai/ha): 30; Galium plant response rating (0 to 100 scale) ([9]; 500 g ai/ha): 10; Wheat plant response rating (0 to 100 scale) ([10]; 500 g ai/ha): 0; Foxtail, Giant plant response rating (0 to 100 scale) ([11]; 500 g ai/ha): 20; Corn plant response rating (0 to 100 scale) (corn (Zea mays); 500 g ai/ha): 0; Kochia plant response rating (0 to 100 scale) (kochia (Kochia scoparia) [12]; 500 g ai/ha): 0; Ryegrass, Italian plant response rating ([13]; 500 g ai/ha): 0; Ragweed plant response rating ([14]; 500 g ai/ha): 0; Pigweed plant response rating ([15]; 500 g ai/ha): 0; Barnyardgrass plant response rating ([16]; 500 g ai/ha): 10; Foxtail, Giant plant response rating ([17]; 500 g ai/ha): 10; Kochia plant response rating (kochia (Kochia scoparia) [18]; 500 g ai/ha): 0
3 | N#CCOC(=O)c1c(F)cccc1Oc1ncc(Cl)cn1 [Compound 49] | 20 | 20 | 0 | 0 | 0 | 0 | 0 | 0 | 0 | 0 | 0 | 0 | 0 | 0 | 0 | 0 | 0 | 0 | 0 | 0 | Ryegrass, Italian plant response rating (0 to 100 scale) ([4]; 500 g ai/ha): 0; Ragweed plant response rating (0 to 100 scale) ([5]; 500 g ai/ha): 0; Pigweed plant response rating (0 to 100 scale) ([6]; 500 g ai/ha): 0; Blackgrass plant response rating (0 to 100 scale) ([7]; 500 g ai/ha): 0; Barnyardgrass plant response rating (0 to 100 scale) ([8]; 500 g ai/ha): 0; Galium plant response rating (0 to 100 scale) ([9]; 500 g ai/ha): 0; Wheat plant response rating (0 to 100 scale) ([10]; 500 g ai/ha): 0; Foxtail, Giant plant response rating (0 to 100 scale) ([11]; 500 g ai/ha): 0; Corn plant response rating (0 to 100 scale) (corn (Zea mays); 500 g ai/ha): 0; Kochia plant response rating (0 to 100 scale) (kochia (Kochia scoparia) [12]; 500 g ai/ha): 0; Ryegrass, Italian plant response rating ([13]; 500 g ai/ha): 0; Ragweed plant response rating ([14]; 500 g ai/ha): 0; Pigweed plant response rating ([15]; 500 g ai/ha): 0; Barnyardgrass plant response rating ([16]; 500 g ai/ha): 0; Foxtail, Giant plant response rating ([17]; 500 g ai/ha): 0; Kochia plant response rating (kochia (Kochia scoparia) [18]; 500 g ai/ha): 0
4 | O=C(OC/C=C/C(F)(F)F)c1c(Br)cccc1Oc1ncc(Cl)cn1 [Compound 50] | 0 | 0 | 80 | 65 | 20 | 0 | 100 | 20 | 20 | 90 | 0 | 70 | 10 | 90 | 0 | 0 | 90 | 10 | 100 | 0 | Ryegrass, Italian plant response rating [4, 19]: 0; Ragweed plant response rating [5, 19]: 0; Pigweed plant response rating [6, 19]: 80; Blackgrass plant response rating [7, 19]: 0; Barnyardgrass plant response rating [8, 19]: 0; Galium plant response rating [9, 19]: 60; Wheat plant response rating [10, 19]: 0; Foxtail, Giant plant response rating [11, 19]: 20; Corn plant response rating (corn (Zea mays); [19]): 10; Kochia plant response rating (kochia (Kochia scoparia) [12]; [19]): 60; Plant response rating, Ryegrass, Italian [13, 20]: 0; Plant response rating, Ragweed [14, 20]: 0; Plant response rating, Pigweed [15, 20]: 0; Plant response rating, Barnyardgrass [16, 20]: 0; Plant response rating, Foxtail, Giant [17, 20]: 50; Plant response rating, Kochia (kochia (Kochia scoparia) [18]; [20]): 0
